19 molecules from patent US20090099177A1, “PYRIDYL COMPOUNDS” (priority 2006, published 2009) can be followed below.

Assay [1] deals with T1, human prostanoid EP1 receptor (Homo sapiens, UniProt P34995).
T1 construct: expressed in transfected cells; host or cells: CHO-K1 (membrane fraction)
T1 sequence (P34995 1-402): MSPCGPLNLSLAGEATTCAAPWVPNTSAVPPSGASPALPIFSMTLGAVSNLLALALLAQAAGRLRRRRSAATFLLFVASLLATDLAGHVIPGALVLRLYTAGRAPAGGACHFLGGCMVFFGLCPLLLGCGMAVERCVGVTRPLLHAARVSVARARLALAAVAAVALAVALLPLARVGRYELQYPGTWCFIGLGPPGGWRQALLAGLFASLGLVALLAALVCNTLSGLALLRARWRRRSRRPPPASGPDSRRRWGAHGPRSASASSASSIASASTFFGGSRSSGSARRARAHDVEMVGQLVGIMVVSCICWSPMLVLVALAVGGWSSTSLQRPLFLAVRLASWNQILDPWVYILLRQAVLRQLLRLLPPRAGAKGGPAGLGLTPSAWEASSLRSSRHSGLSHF
Put plainly: Binding assay for the human prostanoid EP1 receptor (competition with [3H]-PGE2). Particulars: [3H]-PGE2 competition, human EP1, CHO-K1 membranes; averages of a number of experiments; read-out: pIC50 value (converted). The method, then: Competition assay using [^3H]-PGE2.
Compound potencies are determined using a radioligand binding assay. In this assay compound potencies are determined from their ability to compete with tritiated prostaglandin E2 ([^3H]-PGE2) for binding to the human EP1 receptor.
This assay utilises Chinese hamster ovary-K1 (CHO-K1) cells into which a stable vector containing the EP1 cDNA has previously been transfected. Cells are cultured in suitable flasks containing culture medium such as DMEM:F-12 supplemented with 10% v/v foetal calf serum, 2 mM L-glutamine, 0.25 mg/ml geneticin, 10 μg/ml puromycin and 10 μM indomethacin.
Cells are detached from the culture flasks by incubation in calcium and magnesium free phosphate buffered saline containing 1 mM disodium ethylenediaminetetraacetic acid (Na2EDTA) and 10 μM indomethacin for 5 min. The cells are isolated by centrifugation at 250×g for 5mins and suspended in an ice cold buffer such as 50 mM Tris, 1 mM Na2EDTA, 140 mM NaCl, 10 μM indomethacin (pH 7.4). The cells are homogenised using a Polytron tissue disrupter (2×10 s burst at full setting), centrifuged at 48,000×g for 20mins and the pellet containing the membrane fraction is washed (optional) three times by suspension and centrifugation at 48,000×g for 20mins. The final membrane pellet is suspended in an assay buffer such as 10 mM 2-[N-morpholino]ethanesulphonic acid, 1 mM Na2EDTA, 10 mM MgCl2 (pH 6). Aliquots are frozen at −80° C. until required.
For the binding assay the cell membranes, competing compounds and [^3H]-PGE2 (3 nM final assay concentration) are incubated in a final volume of 100 μl for 30 min at 30° C. All reagents are prepared in assay buffer. Reactions are terminated by rapid vacuum filtration over GF/B filters using a Brandell cell harvester. The filters are washed with ice cold assay buffer, dried and the radioactivity retained on the filters is measured by liquid scintillation counting in Packard TopCount scintillation counter.
The data are analysed using non linear curve fitting techniques to determine the concentration of compound producing 50% inhibition of specific binding (IC50).

A further assay addresses T2, human EP1 receptor (Homo sapiens, UniProt P34995).
T2 construct: expressed in transfected cells; host or cells: CHO-K1
T2 sequence (P34995 1-402): T1 sequence (P34995 1-402)
The assay can be described thus: human EP1 calcium mobilisation assay. It is filed as cell-based. Particulars: for Ki: human EP1, CHO-K1 cells, antagonism of PGE2, averages of a number of experiments, read-out: functional pKi value (converted). Here is the method: Briefly, the antagonist properties of compounds are assessed by their ability to inhibit the mobilisation of intracellular calcium ([Ca^2+]i) in response to activation of EP1 or EP3 receptors by the natural agonist hormone prostaglandin E2 (PGE2). Increasing concentrations of antagonist reduce the amount of calcium that a given concentration of PGE2 can mobilise. The net effect is to displace the PGE2 concentration-effect curve to higher concentrations of PGE2. The amount of calcium produced is assessed using a calcium-sensitive fluorescent dye such as Fluo-4, AM and a suitable instrument such as a Fluorimetric Imaging Plate Reader (FLIPR). Increasing amounts of [Ca^2+]i produced by receptor activation increase the amount of fluorescence produced by the dye and give rise to an increasing signal. The signal may be detected using the FLIPR instrument and the data generated may be analysed with suitable curve-fitting software.
The human EP1 or EP3 calcium mobilisation assay (hereafter referred to as ‘the calcium assay’) utilises Chinese hamster ovary-K1 (CHO-K1) cells into which a stable (pCIN; BioTechniques 20 (1996): 102-110) vector containing either EP1 or EP3 cDNA has previously been transfected. Cells are cultured in suitable flasks containing culture medium such as DMEM:F-12 supplemented with 10% v/v foetal calf serum, 2 mM L-glutamine, 0.25 mg/ml geneticin, 100 μM flurbiprofen and 10 μg/ml puromycin.
For assay, cells are harvested using a proprietary reagent that dislodges cells such as Versene. Cells are re-suspended in a suitable quantity of fresh culture media for introduction into a 384-well plate. Following incubation for 24 hours at 37° C. the culture media is replaced with a medium containing Fluo-4 and the detergent pluronic acid, and a further incubation takes place. Concentrations of compounds are then added to the plate in order to construct concentration-effect curves. This may be performed on the FLIPR in order to assess the agonist properties of the compounds. Concentrations of PGE2 are then added to the plate in order to assess the antagonist properties of the compounds.
The data so generated may be analysed by means of a computerised curve-fitting routine. The concentration of compound that elicits a half-maximal inhibition of the calcium mobilisation induced by PGE2 (pIC50) may then be estimated.
On the technique in general: Calcium assays in cells follow changes in intracellular calcium, usually with a dye or a luminescent sensor.

The structures appear in SMILES notation. Where a name gives a salt, the structure may show the parent alone. A value given as a limit tells only on which side of the number the result lay.

Regarding `Fc1ccc2[nH]c(-c3cccc(Cc4cc(Cl)ccc4OCc4ccccc4)n3)nc2c1` [Example 36, 2-[6-({5-Chloro-2-[(phenylmethyl)oxy]phenyl}methyl)-2-pyridinyl]-5-fluoro-1H-benzimidazolehydrochloride], in assay [1], the IC50 was no more than 100 nM. The Ki at human EP1 receptor is no more than 316 nM.
Regarding `CN(C)c1ccc2nc(-c3cccc(Cc4cc(Cl)ccc4OCc4ccccc4)n3)[nH]c2c1` [Example 27, 2-[6-({5-Chloro-2-[(phenylmethyl)oxy]phenyl}methyl)-2-pyridinyl]-N,N-dimethyl-1H-benzimidazol-5-aminehydrochloride], the IC50 in assay [1] is no more than 100 nM. Also, the Ki on human EP1 receptor was no more than 10000 nM.
As to `CC(C)COc1ccc(Cl)cc1Cc1cccc(-c2nc3nccnc3[nH]2)n1` [Example 22, 2-[6-({5-Chloro-2-[(2-methylpropyl)oxy]phenyl}methyl)-2-pyridinyl]-1H-imidazo[4,5-b]pyrazine hydrochloride], in assay [1], the IC50 is no more than 100 nM. Also, the Ki at human EP1 receptor was no more than 316 nM.
`Clc1ccc(OCc2ccccc2)c(Cc2cccc(-c3nc4ccccc4[nH]3)n2)c1` [Example 34, 2-[6-({5-Chloro-2-[(phenylmethyl)oxy]phenyl}methyl)-2-pyridinyl]-1H-benzimidazole hydrochloride]: the IC50 in assay [1] is no more than 100 nM. In addition, the Ki at human EP1 receptor was no more than 316 nM.
In the case of `CC(C)COc1ccc(Cl)cc1Cc1cccc(NC(=O)c2ccc(CO)cc2)n1` [Example 62, N-[6-({5-Chloro-2-[(2-methylpropyl)oxy]phenyl}methyl)-2-pyridinyl]-4-(hydroxymethyl)benzamide], in assay [1], the IC50 is no more than 100 nM. Also, the Ki at human EP1 receptor was no more than 10000 nM.
As for `Clc1ccc(OCc2ccccc2)c(Cc2cccc(-c3nc4cc(Cl)ccc4[nH]3)n2)c1` [Example 35, 5-Chloro-2-[6-({5-Chloro-2-[(phenylmethyl)oxy]phenyl}methyl)-2-pyridinyl]-1H-benzimidazole hydrochloride], the IC50 in assay [1] is no more than 100 nM. Further, the Ki on human EP1 receptor was no more than 316 nM.
For `CC(C)(C)OC(=O)Nc1cccc(Cc2cc(Cl)ccc2OCc2ccc(Cl)cc2F)n1` [Example 61, 1,1-Dimethylethyl {6-[(5-chloro-2-{[(4-chloro-2-fluorophenyl)methyl]oxy}phenyl)methyl]-2-pyridinyl}carbamate Hydrochloride], the IC50 in assay [1] was no more than 100 nM. The Ki on human EP1 receptor was no more than 316 nM.
The matching figures for `Fc1cc(Cl)ccc1COc1ccc(Cl)cc1Cc1cccc(-c2nc3ccccc3[nH]2)n1` [Example 19, 2-{6-[(5-Chloro-2-[([(4-chloro-2-fluorophenyl)methyl]oxy}phenyl)methyl]-2-pyridinyl]-1H-benzimidazole Hydrochloride]: no more than 100 nM and no more than 316 nM.
As to `Clc1ccc(OCc2ccccc2)c(Cc2cccc(-c3nc4ncccc4[nH]3)n2)c1` [Example 30, 2-[6-({5-Chloro-2-[(phenylmethyl)oxy]phenyl}methyl)-2-pyridinyl]-1H-imidazo[4,5-b]pyridinehydrochloride], the IC50 in assay [1] was no more than 100 nM. Besides, the Ki on human EP1 receptor is no more than 316 nM.
Consider `CN(C)Cc1ccc2nc(-c3cccc(Cc4cc(Cl)ccc4OCc4ccc(Cl)cc4F)n3)[nH]c2c1` [Example 58, [(2-{6-[(5-Chloro-2-{[(4-chloro-2-fluorophenyl)methyl]oxy}phenyl)methyl]-2-pyridinyl}-1H-benzimidazol-5-yl)methyl]dimethylamine Hydrochloride], for which the IC50 in assay [1] was no more than 100 nM; on human EP1 receptor (human EP1 calcium mobilisation assay, read-out: pIC50 values (converted)), greater than 10000 nM.
Consider `CNCc1ccc2nc(-c3cccc(Cc4cc(Cl)ccc4OCC(C)C)n3)[nH]c2c1` [Example 52, ({2-[6-({5-Chloro-2-[(2-methylpropyl)oxy]phenyl}methyl)-2-pyridinyl]-1H-benzimidazol-5-yl}methyl)methylaminehydrochloride], for which, in assay [1], the IC50 was no more than 100 nM. Besides, on human EP1 receptor, the Ki was no more than 316 nM.
For `O=C(Nc1cccc(Cc2cc(Cl)ccc2OCc2ccccc2)n1)C1CCOC1` (stereo not shown) [Example 18, N-[6-({5-Chloro-2-[(phenylmethyl)oxy]phenyl}methyl)-2-pyridinyl]tetrahydro-3-furancarboxamide], the IC50 in assay [1] was no more than 100 nM.
For `CC(C)COc1ccc(Cl)cc1Cc1cccc(-c2nc3ccccc3[nH]2)n1` [Example 44, 2-[6-({5-Chloro-2-[(2-methylpropyl)oxy]phenyl}methyl)-2-pyridinyl]-1H-benzimidazole], the IC50 in assay [1] was no more than 100 nM. Also, at human EP1 receptor, the Ki is no more than 316 nM.
Regarding `O=C(Nc1ccc(CO)cc1)c1cccc(Cc2cc(Cl)ccc2OCc2ccc(Cl)cc2F)n1` [Example 13, 6-[(5-Chloro-2-{[(4-chloro-2-fluorophenyl)methyl]oxy}phenyl)methyl]-N-[4-(hydroxymethyl)phenyl]-2-pyridinecarboxamide], the IC50 in assay [1] was no more than 100 nM. Moreover, at human EP1 receptor, the Ki was no more than 10000 nM.
`COc1ccc2[nH]c(-c3cccc(Cc4cc(Cl)ccc4OCc4ccccc4)n3)nc2c1` [Example 31, 2-[6-({5-Chloro-2-[(phenylmethyl)oxy]phenyl}methyl)-2-pyridinyl]-5-(methyloxy)-1H-benzimidazolehydrochloride]: the IC50 in assay [1] was no more than 100 nM. Moreover, the Ki on human EP1 receptor is no more than 316 nM.
For `CC(C)(C)CC(=O)Nc1cccc(Cc2cc(Cl)ccc2OCc2ccccc2)n1` [Example 5, N-[6-({5-Chloro-2-[(phenylmethyl)oxy]phenyl}methyl)-2-pyridinyl]-3,3-dimethylbutanamide], the IC50 in assay [1] was no more than 100 nM. The Ki at human EP1 receptor is no more than 316 nM.
For the molecule `O=C(Nc1cccc(Cc2cc(Cl)ccc2OCc2ccccc2)n1)C1CCCCC1` [Example 4, N-[6-({5-Chloro-2-[(phenylmethyl)oxy]phenyl}methyl)-2-pyridinyl]cyclohexanecarboxamide], in assay [1], the IC50 was no more than 100 nM. The Ki on human EP1 receptor was no more than 316 nM.
On to `Cc1ccc2[nH]c(-c3cccc(Cc4cc(Cl)ccc4OCc4ccccc4)n3)nc2c1` [Example 29, 2-[6-({5-Chloro-2-[(phenylmethyl)oxy]phenyl}methyl)-2-pyridinyl]-5-methyl-1H-benzimidazole Hydrochloride], for which the IC50 in assay [1] is no more than 100 nM. For the same molecule, at human EP1 receptor, the Ki is no more than 10000 nM.
As to `Clc1ccc(OCc2ccccc2)c(Cc2cccc(-c3nc4ccc(N5CCOCC5)cc4[nH]3)n2)c1` [Example 28, 2-[6-({5-Chloro-2-[(phenylmethyl)oxy]phenyl}methyl)-2-pyridinyl]-5-(4-morpholinyl)-1H-benzimidazolehydrochloride], the IC50 in assay [1] is no more than 100 nM. In addition, the Ki on human EP1 receptor is no more than 316 nM.
